Results from article PMC4698308, “A new amino acid substitution (Ala-205-Phe) in acetolactate synthase (ALS) confers broad spectrum resistance to ALS-inhibiting herbicides” (Planta, 2015).

Key:
[1] = test system: annual bluegrass (Poa annua L.); test: Whole plant non-target site resistance experiment with P450 inhibitors malathion or PBO (control 21 days after treatment); type: in vivo; settings: for Annual bluegrass control S: susceptible (S)
Description: Additional experiments were conducted during March–April 2015 to determine if non-target site based mechanisms conferred resistance to ALS inhibitors in our annual bluegrass population, POAAN-R3. Plants (RP6, RP7, and S) were cultured in plastic conical containers as previously described and allowed to acclimate to the glasshouse for 18 days prior to initiating two experiments.
In the first experiment, resistant (RP6, RP7) and susceptible (S) plants were treated with foramsulfuron at 29 g ha^−1, trifloxysulfuron (Monument. Syngenta Professional Products. Greensboro, NC, USA) at 27.8 g ha^−1, imazaquin (Image. BASF Corporation. Research Triangle Park, NC) at 27.5 g ha^−1, or bispyribac-sodium (Velocity. Valent USA Corporation. Walnut Creek, CA, USA) at 70 g ha^−1. All herbicides were applied alone or in combination with either malathion (Spectrum Group. St. Louis, MO, USA) at 1000 g ha^−1 or piperonyl butoxide (Sigma Aldrich. St. Louis, MO, USA) at 2100 g ha^−1. Malathion and piperonyl butoxide (PBO) inhibit cytochrome P450 monooxygenases involved in metabolism of ALS inhibiting herbicides and are commonly used at the application rates tested herein to evaluate non-target site based resistance mechanisms in weeds (Burnet et al. [1994]; Christopher et al. [1992]; Yu and Powles [2014b]; Rao et al. [1995]). All herbicides were mixed in water carrier and included non-ionic surfactant at 0.25 % v/v. Malathion and PBO were mixed with methanol and de-ionized water (50:50) and applied 60 min prior to herbicide application using a previously described enclosed spray chamber on 13 February 2015.
Annual bluegrass control was visually assessed on a 0 (i.e., no control) to 100 % (i.e., complete kill) scale relative to the non-treated 21 days after treatment. After all control data had been collected, aboveground biomass was harvested from each plastic conical container at the soil line using scissors, dried at 100 °C, and weighed. Treatments were arranged as a 3 × 5 × 3 factorial with three plant selections (RP6, RP7, S), five herbicides (foramsulfuron, trifloxysulfuron, imazaquin, bispyribac-sodium, non-treated) and three P450 inhibitor treatments (malathion, PBO, non-treated) in a completely randomized design with four replications and repeated in separate glasshouses during February 2015.

[2] = test system: recombinant Arabidopsis thaliana ALS variant A205V; type: biochemical; settings: IC50 mutant divided by IC50 sensitive ALS; max inhibitor concentration 1.00 × 10^−04 M
Description: (§1) Effects of SNPs identified in sequencing analysis on ALS activity were studied using A. thaliana. The ALS gene from A. thaliana and derivatives thereof were de novo synthesized and subcloned into pET-24d(+) (Life Technologies. Grand Island, NY, USA) using NcoI and XhoI restriction sites. Protein constructs contained an 85 amino acid N-terminal deletion (chloroplast transit peptide) and the addition of an N-terminal Hexa-histidine tag to facilitate purification.
(§2) Lysis was performed by at least two passes through a fluidizer, followed by centrifuging at 80000×g for 30 min at 4 °C. […] Fractions containing ALS protein were pooled and stored at −20 °C.
(§3) Inhibitors, purchased from Sigma as Pestanal standards (Sigma-Aldrich, Deisenhofen, Germany), were dissolved in DMSO and added to the reaction mixture. Inhibitors evaluated included imidazolinone, sulfonylurea, triazolopyrimidines, sulfonylamino-carbonyl- triazolinones, and pyrimidinyl (thio) benzoate herbicides. The reaction mixture was incubated at 30 °C for 60 min and stopped with 70 µl of H2SO4 (3 M). The reaction was then heated to 56 °C for 15 min to convert acetolactate into acetoin. […] For each inhibitor, resistance factors were calculated by dividing IC50 values for mutant and sensitive ALS.

[3] = test system: recombinant Arabidopsis thaliana ALS variant A205F; type: biochemical; settings: IC50 mutant divided by IC50 sensitive ALS; max inhibitor concentration 1.00 × 10^−04 M
Description: as §1, §2, §3

[4] = test system: recombinant Arabidopsis thaliana ALS variant W574L; type: biochemical; settings: IC50 mutant divided by IC50 sensitive ALS; max inhibitor concentration 1.00 × 10^−04 M
Description: as §1, §2, §3

[5] = biological target: T1, recombinant Arabidopsis thaliana ALS wild-type enzyme (WT—sensitive) (Arabidopsis thaliana, UniProt P17597); test: biochemical
T1 construct: Protein constructs contained an 85 amino acid N-terminal deletion (chloroplast transit peptide); Hexa-histidine tag (N); made in house
T1 sequence (P17597 86-670): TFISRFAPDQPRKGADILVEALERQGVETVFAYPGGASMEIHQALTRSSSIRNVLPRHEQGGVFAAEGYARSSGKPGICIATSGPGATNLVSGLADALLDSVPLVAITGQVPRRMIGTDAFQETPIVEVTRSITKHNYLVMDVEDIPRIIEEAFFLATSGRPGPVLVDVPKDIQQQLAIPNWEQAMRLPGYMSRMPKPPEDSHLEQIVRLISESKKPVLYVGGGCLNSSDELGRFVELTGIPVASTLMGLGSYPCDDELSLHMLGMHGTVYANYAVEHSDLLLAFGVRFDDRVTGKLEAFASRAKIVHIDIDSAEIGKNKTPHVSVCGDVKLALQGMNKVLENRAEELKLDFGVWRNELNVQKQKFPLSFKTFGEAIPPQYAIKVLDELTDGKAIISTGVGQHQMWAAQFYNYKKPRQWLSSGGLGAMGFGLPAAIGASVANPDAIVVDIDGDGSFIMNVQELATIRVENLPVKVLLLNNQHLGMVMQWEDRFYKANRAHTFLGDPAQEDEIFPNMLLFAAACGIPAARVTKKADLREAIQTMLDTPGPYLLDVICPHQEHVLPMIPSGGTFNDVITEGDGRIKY
Description: as §1, §2, §3

CC(C)C1(C)N=C(c2nc3ccccc3cc2C(=O)O)NC1=O (stereo not shown) [Imazaquin]
Annual bluegrass control RP6 ([1]; RP6, herbicide alone, foramsulfuron 29, trifloxysulfuron 27.8, imazaquin 27.5, bispyribac-sodium 70 g ha^−1): 36%
Annual bluegrass control RP6 ([1]; RP6, herbicide with PBO 2100 g ha^−1 applied 60 min prior): 24%
Annual bluegrass control RP6 ([1]; RP6, herbicide with malathion 1000 g ha^−1 applied 60 min prior): 32%
Annual bluegrass control RP7 ([1]; RP7, herbicide alone, foramsulfuron 29, trifloxysulfuron 27.8, imazaquin 27.5, bispyribac-sodium 70 g ha^−1): 11%
Annual bluegrass control RP7 ([1]; RP7, herbicide with PBO 2100 g ha^−1 applied 60 min prior): 9%
Annual bluegrass control RP7 ([1]; RP7, herbicide with malathion 1000 g ha^−1 applied 60 min prior): 8%
Annual bluegrass control S ([1]; herbicide alone, foramsulfuron 29, trifloxysulfuron 27.8, imazaquin 27.5, bispyribac-sodium 70 g ha^−1): 53%
Annual bluegrass control S ([1]; herbicide with PBO 2100 g ha^−1 applied 60 min prior): 71%
Annual bluegrass control S ([1]; herbicide with malathion 1000 g ha^−1 applied 60 min prior): 64%
Resistance factor A205V [2]: 36
Resistance factor A205F [3]: 19
Resistance factor W574L [4]: 65
IC50 [5]: 1550 nM
